Laboratory results from US20260274829A1, “NEW E3 UBIQUITIN LIGASE LIGAND, PROTEIN DEGRADATION AGENT AND USE THEREOF” (GLUETACS THERAPEUTICS (SHANGHAI) CO., LTD., priority 2023, published 2026).

Columns and labels:
Format in all cases: cell-based
[1] = target: T1, WEE1 (Homo sapiens, UniProt P30291+Q96SW2); assay: Western blot degradation of WEE1 in hPBMC
T1 construct: endogenous in cells; host or cells: hPBMC
Procedure: (§1) Conventional Western blot assay was performed to evaluate the effects of the compounds of the present disclosure on the expression of target proteins in cells.
(§2) • (1) Cell Seeding and Protein Harvesting: The selected cells were processed according to the cell seeding procedure and protein harvesting procedure in Table III-2.
(§3) • (2) To the collected supernatant, 5×SDS sample loading buffer was added, followed by denaturation at 95° C. for 5 minutes. The denatured samples were then separated by SDS-PAGE electrophoresis on a polyacrylamide gel. Proteins were transferred to a nitrocellulose membrane ([…] NC membrane), blocked with blocking buffer at room temperature for 1 hour, and subjected to antibody incubation and development procedures according to the antibody manufacturer's instructions (Cell Signaling Technology).
(§4) Half-Maximal Degradation Concentration value (the drug concentration required for degrading proteins by 50%, abbreviated as DC50) reads method: comparing the grayscale values of Western blot bands from drug-treated samples with those from blank DMSO-treated controls, and identifying the drug concentration range at which the grayscale value is half that of the DMSO-treated control bands.
(§5) DC50 values can be calculated using ImageJ software to measure grayscale values of Western blot bands from drug-treated samples. The concentration-response curve is fitted to estimate the drug concentration corresponding to half the grayscale value.
(§6) Target protein remaining (0%) refers to the percentage of target protein remaining in hPBMC cells after treatment with protein degrader compounds.
(§7) Calculation method for target protein remaining (0%): Use ImageJ software to measure grayscale values of Western blot bands from drug (protein degrader)-treated samples. The grayscale value of drug-treated bands is divided by that of internal control protein bands, and the resulting quotient is normalized to obtain the relative percentage of remaining target protein after protein degrader treatment.

[2] = target: T2, IKZF1 (Homo sapiens, UniProt Q13422+Q96SW2); assay: Western blot degradation of IKZF1 in hPBMC
T2 construct: endogenous in cells; host or cells: hPBMC
T2 sequence (Q13422 whole entry): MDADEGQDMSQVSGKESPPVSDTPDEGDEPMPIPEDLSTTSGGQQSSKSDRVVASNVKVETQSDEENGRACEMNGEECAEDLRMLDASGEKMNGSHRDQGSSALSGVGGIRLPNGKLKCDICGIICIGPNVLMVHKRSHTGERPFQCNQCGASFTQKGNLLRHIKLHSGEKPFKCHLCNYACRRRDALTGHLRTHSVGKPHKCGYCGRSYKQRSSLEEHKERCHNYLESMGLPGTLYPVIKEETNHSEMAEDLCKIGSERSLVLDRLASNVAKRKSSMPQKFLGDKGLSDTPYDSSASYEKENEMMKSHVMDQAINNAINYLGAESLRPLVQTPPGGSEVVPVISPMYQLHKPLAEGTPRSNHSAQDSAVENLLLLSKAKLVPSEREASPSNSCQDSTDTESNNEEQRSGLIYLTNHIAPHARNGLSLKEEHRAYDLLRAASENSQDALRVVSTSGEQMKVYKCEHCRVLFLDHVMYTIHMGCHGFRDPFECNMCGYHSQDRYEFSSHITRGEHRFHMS
T2 sequence (Q96SW2 whole entry): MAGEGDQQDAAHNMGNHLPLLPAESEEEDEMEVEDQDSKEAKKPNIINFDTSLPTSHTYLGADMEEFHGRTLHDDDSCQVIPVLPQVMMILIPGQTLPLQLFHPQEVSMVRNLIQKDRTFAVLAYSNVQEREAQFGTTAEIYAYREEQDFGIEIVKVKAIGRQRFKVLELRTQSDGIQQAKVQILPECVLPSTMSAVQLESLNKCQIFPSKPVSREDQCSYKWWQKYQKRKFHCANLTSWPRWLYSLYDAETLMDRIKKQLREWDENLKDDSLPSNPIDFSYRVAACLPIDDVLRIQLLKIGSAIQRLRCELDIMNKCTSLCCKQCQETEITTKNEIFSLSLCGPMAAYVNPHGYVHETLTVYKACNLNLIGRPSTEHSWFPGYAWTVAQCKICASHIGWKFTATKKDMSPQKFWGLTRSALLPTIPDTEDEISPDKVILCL
T2 sequence (Q16531 whole entry partner): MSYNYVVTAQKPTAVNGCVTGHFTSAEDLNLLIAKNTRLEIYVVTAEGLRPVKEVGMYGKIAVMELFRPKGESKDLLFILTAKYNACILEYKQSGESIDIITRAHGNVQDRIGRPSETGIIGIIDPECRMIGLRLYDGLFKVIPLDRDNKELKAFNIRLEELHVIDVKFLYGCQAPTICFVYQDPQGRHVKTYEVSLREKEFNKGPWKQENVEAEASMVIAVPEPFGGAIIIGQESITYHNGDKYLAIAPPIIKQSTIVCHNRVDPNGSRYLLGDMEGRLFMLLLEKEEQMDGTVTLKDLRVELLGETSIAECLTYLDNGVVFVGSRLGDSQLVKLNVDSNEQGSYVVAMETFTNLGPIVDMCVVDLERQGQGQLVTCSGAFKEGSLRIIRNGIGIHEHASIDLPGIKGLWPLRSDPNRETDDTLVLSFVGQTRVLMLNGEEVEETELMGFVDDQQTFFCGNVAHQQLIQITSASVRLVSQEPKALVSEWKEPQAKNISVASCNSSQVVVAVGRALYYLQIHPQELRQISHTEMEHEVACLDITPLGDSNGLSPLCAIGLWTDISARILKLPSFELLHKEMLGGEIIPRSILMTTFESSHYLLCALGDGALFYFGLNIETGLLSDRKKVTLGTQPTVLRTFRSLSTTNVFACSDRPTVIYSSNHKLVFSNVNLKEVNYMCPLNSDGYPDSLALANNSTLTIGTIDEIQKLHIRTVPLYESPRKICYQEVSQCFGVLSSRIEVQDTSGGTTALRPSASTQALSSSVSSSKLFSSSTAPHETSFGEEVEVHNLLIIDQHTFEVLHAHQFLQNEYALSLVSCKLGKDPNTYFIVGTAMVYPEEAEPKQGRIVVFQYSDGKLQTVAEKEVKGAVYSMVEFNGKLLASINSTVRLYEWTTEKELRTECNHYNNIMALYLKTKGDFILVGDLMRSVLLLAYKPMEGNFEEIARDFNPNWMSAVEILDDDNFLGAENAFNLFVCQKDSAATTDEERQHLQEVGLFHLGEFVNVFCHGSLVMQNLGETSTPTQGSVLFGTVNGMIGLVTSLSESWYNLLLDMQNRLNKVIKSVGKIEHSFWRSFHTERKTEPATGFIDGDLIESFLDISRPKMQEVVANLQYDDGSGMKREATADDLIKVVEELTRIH
Procedure: as §1, §2, §3, §4, §5, §6, §7

[3] = target: T3, IKZF2 (Homo sapiens, UniProt Q96SW2+Q9UKS7); assay: Western blot degradation of IKZF2 in hPBMC
T3 construct: endogenous in cells; host or cells: hPBMC
T3 sequence (Q9UKS7 whole entry): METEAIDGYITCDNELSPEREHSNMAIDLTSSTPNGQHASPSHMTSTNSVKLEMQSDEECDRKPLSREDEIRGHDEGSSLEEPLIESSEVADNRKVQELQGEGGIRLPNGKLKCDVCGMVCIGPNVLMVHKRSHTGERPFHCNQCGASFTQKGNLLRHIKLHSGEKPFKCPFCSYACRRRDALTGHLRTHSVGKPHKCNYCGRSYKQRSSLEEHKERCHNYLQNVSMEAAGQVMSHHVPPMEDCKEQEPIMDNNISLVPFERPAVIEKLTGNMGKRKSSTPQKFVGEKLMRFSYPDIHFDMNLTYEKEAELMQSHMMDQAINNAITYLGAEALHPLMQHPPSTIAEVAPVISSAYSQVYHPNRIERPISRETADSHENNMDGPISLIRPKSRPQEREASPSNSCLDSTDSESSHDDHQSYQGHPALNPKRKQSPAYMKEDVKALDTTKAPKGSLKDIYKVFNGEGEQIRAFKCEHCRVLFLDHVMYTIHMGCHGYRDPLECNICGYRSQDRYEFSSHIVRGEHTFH
T3 sequence (Q96SW2 whole entry): as the sequence (Q96SW2 whole entry) above
T3 sequence (Q16531 whole entry partner): as the sequence (Q16531 whole entry partner) above
Procedure: as §1, §2, §3, §4, §5, §6, §7

[4] = target: T4, IKZF3 (Homo sapiens, UniProt Q96SW2+Q9UKT9); assay: Western blot degradation of IKZF3 in hPBMC
T4 construct: endogenous in cells; host or cells: hPBMC
Procedure: as §1, §2, §3, §4, §5, §6, §7

[5] = target: T5, CK1a (Homo sapiens, UniProt P48729+Q96SW2); assay: Western blot degradation of CK1a in hPBMC
T5 construct: endogenous in cells; host or cells: hPBMC
T5 sequence (P48729 whole entry): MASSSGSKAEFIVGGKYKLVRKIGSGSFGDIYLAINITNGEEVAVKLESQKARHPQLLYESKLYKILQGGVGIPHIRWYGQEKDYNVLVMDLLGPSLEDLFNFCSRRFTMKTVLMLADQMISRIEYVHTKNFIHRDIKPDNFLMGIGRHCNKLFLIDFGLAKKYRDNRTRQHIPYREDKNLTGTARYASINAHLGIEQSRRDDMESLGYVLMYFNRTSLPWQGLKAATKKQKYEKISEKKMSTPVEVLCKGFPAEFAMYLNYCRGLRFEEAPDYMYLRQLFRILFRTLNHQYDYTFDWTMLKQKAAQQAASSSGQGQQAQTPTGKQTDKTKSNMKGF
T5 sequence (Q96SW2 whole entry): as the sequence (Q96SW2 whole entry) above
T5 sequence (Q16531 whole entry partner): as the sequence (Q16531 whole entry partner) above
Procedure: as §1, §2, §3, §4, §5, §6, §7

[6] = target: T6, GSPT1 (Homo sapiens, UniProt P15170+Q96SW2); assay: Western blot degradation of GSPT1 in hPBMC
T6 construct: endogenous in cells; host or cells: hPBMC
T6 sequence (P15170 whole entry): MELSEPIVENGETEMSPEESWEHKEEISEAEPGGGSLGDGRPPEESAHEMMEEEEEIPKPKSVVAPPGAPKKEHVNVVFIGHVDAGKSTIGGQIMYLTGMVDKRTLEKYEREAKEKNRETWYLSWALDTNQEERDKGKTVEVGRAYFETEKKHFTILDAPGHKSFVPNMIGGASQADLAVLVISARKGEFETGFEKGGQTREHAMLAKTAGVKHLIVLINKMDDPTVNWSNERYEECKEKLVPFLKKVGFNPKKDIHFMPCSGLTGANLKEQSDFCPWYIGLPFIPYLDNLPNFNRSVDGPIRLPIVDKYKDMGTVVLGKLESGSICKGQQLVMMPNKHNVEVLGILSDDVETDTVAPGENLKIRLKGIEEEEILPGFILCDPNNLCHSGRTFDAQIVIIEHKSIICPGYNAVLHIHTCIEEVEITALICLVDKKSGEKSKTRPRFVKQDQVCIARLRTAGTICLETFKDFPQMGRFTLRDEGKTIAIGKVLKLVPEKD
T6 sequence (Q96SW2 whole entry): as the sequence (Q96SW2 whole entry) above
T6 sequence (Q16531 whole entry partner): as the sequence (Q16531 whole entry partner) above
Procedure: as §1, §2, §3, §4, §5, §6, §7

T1 sequence (P30291 whole entry): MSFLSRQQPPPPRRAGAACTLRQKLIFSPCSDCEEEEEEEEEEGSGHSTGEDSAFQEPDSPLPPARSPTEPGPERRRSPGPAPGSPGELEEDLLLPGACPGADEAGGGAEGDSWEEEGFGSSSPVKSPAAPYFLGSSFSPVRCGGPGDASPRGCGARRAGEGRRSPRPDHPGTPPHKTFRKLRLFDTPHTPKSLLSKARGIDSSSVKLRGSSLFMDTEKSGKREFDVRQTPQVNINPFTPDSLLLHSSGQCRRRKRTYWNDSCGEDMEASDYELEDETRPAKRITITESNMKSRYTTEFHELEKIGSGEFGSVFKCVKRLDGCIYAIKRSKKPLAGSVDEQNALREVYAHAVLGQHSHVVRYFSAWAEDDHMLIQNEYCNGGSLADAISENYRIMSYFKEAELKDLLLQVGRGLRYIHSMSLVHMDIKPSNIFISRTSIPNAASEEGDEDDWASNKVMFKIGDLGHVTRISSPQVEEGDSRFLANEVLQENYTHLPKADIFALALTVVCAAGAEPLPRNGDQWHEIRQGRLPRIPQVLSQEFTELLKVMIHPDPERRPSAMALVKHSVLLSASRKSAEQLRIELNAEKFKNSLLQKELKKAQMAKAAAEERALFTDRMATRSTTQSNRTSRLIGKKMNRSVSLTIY
T1 sequence (Q96SW2 whole entry): as the sequence (Q96SW2 whole entry) above
T1 sequence (Q16531 whole entry partner): as the sequence (Q16531 whole entry partner) above

O=C1CCC(Nc2ncccc2CO)C(=O)N1 (stereo not drawn) [GT-07197, 3-((3-(hydroxymethyl)pyridin-2-yl)amino)piperidine-2,6-dione]
Degradation of substrate protein WEE1 (substrate protein remaining %) [1]: B (B is defined as substrate protein remaining % > 80%) | Degradation of substrate protein IKZF1 (substrate protein remaining %) [2]: B (B is defined as substrate protein remaining % > 80%) | Degradation of substrate protein IKZF2 (substrate protein remaining %) [3]: B (B is defined as substrate protein remaining % > 80%) | Degradation of substrate protein IKZF3 (substrate protein remaining %) [4]: B (B is defined as substrate protein remaining % > 80%) | Degradation of substrate protein CK1a (substrate protein remaining %) [5]: A (A is defined as 0% ≤ substrate protein remaining % ≤ 80%) | Degradation of substrate protein GSPT1 (substrate protein remaining %) [6]: A (A is defined as 0% ≤ substrate protein remaining % ≤ 80%)

O=C1CCC(c2cc(CO)c(F)cn2)C(=O)N1 (stereo not drawn) [GT-07444, 3-(5-fluoro-4-(hydroxymethyl)pyridin-2-yl)piperidine-2,6-dione]
Degradation of substrate protein WEE1 (substrate protein remaining %) [1]: B (B is defined as substrate protein remaining % > 80%) | Degradation of substrate protein IKZF1 (substrate protein remaining %) [2]: B (B is defined as substrate protein remaining % > 80%) | Degradation of substrate protein IKZF2 (substrate protein remaining %) [3]: A (A is defined as 0% ≤ substrate protein remaining % ≤ 80%) | Degradation of substrate protein IKZF3 (substrate protein remaining %) [4]: A (A is defined as 0% ≤ substrate protein remaining % ≤ 80%) | Degradation of substrate protein CK1a (substrate protein remaining %) [5]: B (B is defined as substrate protein remaining % > 80%) | Degradation of substrate protein GSPT1 (substrate protein remaining %) [6]: B (B is defined as substrate protein remaining % > 80%)

O=C1CCN(c2cnc(F)c(CCl)c2)C(=O)N1 [GT-07633, 1-(5-(chloromethyl)-6-fluoropyridin-3-yl)dihydropyrimidine-2,4(1H,3H)-dione]
Degradation of substrate protein WEE1 (substrate protein remaining %) [1]: A (A is defined as 0% ≤ substrate protein remaining % ≤ 80%) | Degradation of substrate protein IKZF1 (substrate protein remaining %) [2]: B (B is defined as substrate protein remaining % > 80%) | Degradation of substrate protein IKZF2 (substrate protein remaining %) [3]: A (A is defined as 0% ≤ substrate protein remaining % ≤ 80%) | Degradation of substrate protein IKZF3 (substrate protein remaining %) [4]: B (B is defined as substrate protein remaining % > 80%) | Degradation of substrate protein CK1a (substrate protein remaining %) [5]: A (A is defined as 0% ≤ substrate protein remaining % ≤ 80%) | Degradation of substrate protein GSPT1 (substrate protein remaining %) [6]: B (B is defined as substrate protein remaining % > 80%)

CC(C)(C)[Si](C)(C)OCc1ccncc1NC1CCC(=O)NC1=O (stereo not drawn) [GT-07638, 3-((4-(((tert-butyldimethylsilyl)oxy)methyl)pyridin-3-yl)amino)piperidine-2,6-dione]
Degradation of substrate protein WEE1 (substrate protein remaining %) [1]: A (A is defined as 0% ≤ substrate protein remaining % ≤ 80%) | Degradation of substrate protein IKZF1 (substrate protein remaining %) [2]: B (B is defined as substrate protein remaining % > 80%) | Degradation of substrate protein IKZF2 (substrate protein remaining %) [3]: A (A is defined as 0% ≤ substrate protein remaining % ≤ 80%) | Degradation of substrate protein IKZF3 (substrate protein remaining %) [4]: A (A is defined as 0% ≤ substrate protein remaining % ≤ 80%) | Degradation of substrate protein CK1a (substrate protein remaining %) [5]: B (B is defined as substrate protein remaining % > 80%) | Degradation of substrate protein GSPT1 (substrate protein remaining %) [6]: A (A is defined as 0% ≤ substrate protein remaining % ≤ 80%)

O=C1CCC(Nc2ncncc2CO)C(=O)N1 (stereo not drawn) [GT-07727, 3-((5-(hydroxymethyl)pyrimidin-4-yl)amino)piperidine-2,6-dione]
Degradation of substrate protein WEE1 (substrate protein remaining %) [1]: A (A is defined as 0% ≤ substrate protein remaining % ≤ 80%) | Degradation of substrate protein IKZF1 (substrate protein remaining %) [2]: A (A is defined as 0% ≤ substrate protein remaining % ≤ 80%) | Degradation of substrate protein IKZF2 (substrate protein remaining %) [3]: A (A is defined as 0% ≤ substrate protein remaining % ≤ 80%) | Degradation of substrate protein IKZF3 (substrate protein remaining %) [4]: A (A is defined as 0% ≤ substrate protein remaining % ≤ 80%) | Degradation of substrate protein CK1a (substrate protein remaining %) [5]: B (B is defined as substrate protein remaining % > 80%) | Degradation of substrate protein GSPT1 (substrate protein remaining %) [6]: B (B is defined as substrate protein remaining % > 80%)
